Experimental data taken from ChEMBL document CHEMBL1201862, “PubChem BioAssay data set” (2004).
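Briefly, cells in 96-well plates were exposed to five compound concentrations for 48 h, and endpoints were estimated by linear interpolation. Abbreviation: GI50, concentration required for 50% inhibition of growth.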 Calls of active or inactive are those of the source. Rule as the data show it: active = GI50 up to about 1.1 µM and inactive = higher.

Key:
Assay in all cases: inhibition of tumour cell growth, NCI panel, 48 h
[1] = tested on: NCI-H522
[2] = tested on: HCT-116
[3] = tested on: HT-29
[4] = tested on: HOP-92
[5] = tested on: NCI-H460
[6] = tested on: 786-0
[7] = tested on: A549
[8] = tested on: ACHN
[9] = tested on: SN12C
[10] = tested on: IGROV-1
[11] = tested on: TK-10
[12] = tested on: NCI-H23
[13] = tested on: SF-295
[14] = tested on: K562
[15] = tested on: RXF 393

Measured: GI50

Oc1ncnc2c1sc(=S)n2-c1ccccc1
inactive: [1] > 100 µM | [2] > 100 µM | [3] > 100 µM | [4] 70.3 µM | [5] > 100 µM | [6] > 100 µM | [7] > 100 µM | [8] > 100 µM | [9] > 100 µM | [10] > 100 µM | [11] > 100 µM | [12] > 100 µM | [13] > 100 µM | [14] > 100 µM

CN(C)CCCNc1ccc2ncn3c4ccccc4c(=O)c1c23
inactive: [1] 6.17 µM | [2] 3.48 µM | [3] 4.88 µM | [4] 5.9 µM | [5] 3.43 µM | [6] 4.52 µM | [8] 4.81 µM | [9] 11.5 µM | [10] 7.66 µM | [11] 14.8 µM | [12] 12.3 µM | [13] 6.3 µM | [14] 3.77 µM

CC1=C(O)/C(=C/C(C)CCC/C(C)=C/C=C/C(C)CCCc2ccoc2)OC1=O (stereo not drawn)
inactive: [1] 37.2 µM | [2] > 10 µM | [3] 45.4 µM | [15] 24.7 µM | [5] 30.3 µM | [6] 25.5 µM | [7] 27.2 µM | [8] 19.2 µM | [9] 35.3 µM | [11] 20.9 µM | [12] 23.7 µM | [13] 31.9 µM

CC(C)(C)/N=C\N1CCC(C(c2ccccc2)c2ccccc2)CC1
inactive: [2] 50 µM | [3] 21.6 µM | [4] 31.7 µM | [15] 22.9 µM | [5] 87.7 µM | [6] > 100 µM | [7] 98.4 µM | [8] 82.4 µM | [9] 78.3 µM | [10] > 100 µM | [11] 40.6 µM | [12] > 100 µM | [13] > 100 µM | [14] 35.1 µM

CCn1c(SC(C)C(=O)c2c(C)n(C)n(-c3ccccc3)c2=O)nc2ccccc2c1=O (stereo not drawn)
inactive: [1] 84.1 µM | [2] > 100 µM | [3] > 100 µM | [4] 4.47 µM | [5] > 100 µM | [6] > 100 µM | [7] > 100 µM | [8] > 100 µM | [9] > 100 µM | [10] > 100 µM | [11] > 100 µM | [12] > 100 µM | [13] > 100 µM

CSc1nc(NC2OCC(OC(C)=O)C(OC(C)=O)C2OC(C)=O)c2c(n1)OCC2=O (stereo not drawn)
inactive: [1] > 100 µM | [2] > 100 µM | [3] > 100 µM | [15] > 100 µM | [5] > 100 µM | [6] > 100 µM | [7] > 100 µM | [8] > 100 µM | [9] > 100 µM | [10] > 100 µM | [11] > 100 µM | [12] > 100 µM | [13] > 100 µM | [14] > 100 µM

C=C1CCC2C(C)(CO)C(O)CCC2(C)C1C/C=C1/CCOC1=O (stereo not drawn)
inactive: [1] 31.3 µM | [2] > 100 µM | [3] > 100 µM | [4] > 100 µM | [5] > 100 µM | [6] > 100 µM | [7] > 100 µM | [8] > 100 µM | [9] > 100 µM | [10] > 100 µM | [11] > 100 µM | [12] > 100 µM | [13] > 100 µM | [14] > 100 µM

CC1(C)CC2(S(=O)(=O)c3ccccc3)ON1CC2S(=O)(=O)c1ccccc1 (stereo not drawn)
inactive: [1] 29.4 µM | [2] > 100 µM | [3] > 100 µM | [15] 48.4 µM | [5] > 100 µM | [6] > 100 µM | [7] > 100 µM | [8] > 100 µM | [9] > 100 µM | [10] > 100 µM | [11] > 100 µM | [12] 88.5 µM | [13] > 100 µM | [14] 47.1 µM

CCCCCCCCCCCCCCC(C)CCC(=O)O (stereo not drawn)
inactive: [2] 36.8 µM | [3] 34.5 µM | [4] 62.5 µM | [15] > 100 µM | [5] 31.9 µM | [6] 80.9 µM | [7] > 100 µM | [8] > 100 µM | [9] > 100 µM | [10] > 100 µM | [11] > 100 µM | [12] > 100 µM | [13] > 100 µM

COC(=O)C1Cc2c(n(C)c3ccccc23)C(c2ccccc2)N1 (stereo not drawn)
inactive: [1] 16.9 µM | [2] 34.4 µM | [3] 18.9 µM | [4] > 100 µM | [5] 60.5 µM | [6] 80 µM | [7] > 100 µM | [8] 39.3 µM | [9] > 100 µM | [10] 45.8 µM | [11] > 100 µM | [12] > 100 µM | [13] > 100 µM | [14] 47.6 µM

CCCNc1ncnc2c1cnn2C
inactive: [1] > 100 µM | [2] > 100 µM | [3] > 100 µM | [4] > 100 µM | [5] > 100 µM | [6] > 100 µM | [7] > 100 µM | [8] > 100 µM | [9] > 100 µM | [10] > 100 µM | [11] > 100 µM | [12] > 100 µM | [13] > 100 µM | [14] > 100 µM

Cn1cnnc1Sc1c([N+](=O)[O-])nc(-c2ccc([N+](=O)[O-])cc2)n1C
inactive: [1] 6.1 µM | [2] 15.1 µM | [3] 18.4 µM | [4] 19.4 µM | [5] 36.1 µM | [6] 17.7 µM | [7] > 100 µM | [8] 18.6 µM | [9] 16.1 µM | [10] 17.5 µM | [11] 18.7 µM | [12] 18.2 µM | [13] > 100 µM | [14] 18 µM

O/N=C1/C(=C/c2ccc3c(c2)OCO3)CCCC1C(NO)c1ccc2c(c1)OCO2 (stereo not drawn)
inactive: [1] 17.7 µM | [2] 17.3 µM | [3] 16.7 µM | [15] 23.6 µM | [5] 29.4 µM | [6] 28.9 µM | [7] 29.9 µM | [8] 31.6 µM | [9] 21.3 µM | [10] 28.2 µM | [11] 26.1 µM | [12] 30.4 µM | [14] 24.9 µM

COc1cc(OC)c(SSCCCCS(=O)O)c(OC)c1
inactive: [1] 6.65 µM | [2] 16.3 µM | [3] 16.4 µM | [15] 14.5 µM | [5] 17.1 µM | [6] 18.7 µM | [7] 19 µM | [8] 16.1 µM | [9] 17.6 µM | [10] 21 µM | [11] 21.3 µM | [12] 15.4 µM | [13] 13.6 µM | [14] 17.4 µM

C[N+](C)(C)CC1CCCC(C[N+](C)(C)C)C1=NO (stereo not drawn)
inactive: [2] > 100 µM | [3] > 100 µM | [15] > 100 µM | [5] > 100 µM | [6] > 100 µM | [7] > 100 µM | [8] > 100 µM | [9] > 100 µM | [10] > 100 µM | [11] > 100 µM | [12] > 100 µM | [13] > 100 µM | [14] > 100 µM
